This passage reports IC50 results from patent publication US11919902B2, “Aryl-bipyridine amine derivatives as phosphatidylinositol phosphate kinase inhibitors” (HiberCell, Inc., priority 2017, dated 2024).

pIC50: −log10 of the molar value.

In assay [1] the target is T1, PIP4K2A (full length protein, SignalChem) (Homo sapiens, UniProt P48426).
T1 construct: 4 nM PIP4K2A (full length protein, SignalChem); purchased SignalChem
T1 sequence (P48426 1-406): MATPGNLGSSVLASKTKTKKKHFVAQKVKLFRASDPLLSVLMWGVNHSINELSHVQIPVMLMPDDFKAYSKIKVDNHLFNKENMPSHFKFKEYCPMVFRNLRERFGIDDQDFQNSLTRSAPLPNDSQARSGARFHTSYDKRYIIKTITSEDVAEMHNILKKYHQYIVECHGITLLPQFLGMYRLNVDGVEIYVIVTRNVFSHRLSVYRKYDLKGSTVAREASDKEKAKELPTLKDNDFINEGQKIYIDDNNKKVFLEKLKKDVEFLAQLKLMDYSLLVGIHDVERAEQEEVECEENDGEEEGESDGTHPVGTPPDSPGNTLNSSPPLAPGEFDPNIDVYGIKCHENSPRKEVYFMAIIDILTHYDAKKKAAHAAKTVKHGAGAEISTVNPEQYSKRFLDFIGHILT
Briefly: Kinase Assay PIP4K2 A (Sprint); ADP-Glo biochemical assay. The conditions noted are these: Table 2; compounds listed under IC50 range headings. In outline:
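Compounds (10-point, 3-fold dilutions) were pre-incubated 15 min at RT with an enzyme/substrate mix of 4 nM full-length PIP4K2A and 100 μM PI(5)P diC8 in 20 mM MOPS pH 7.2, 25 mM MgCl2, 0.005% Tween 20. A 60 μM ATP solution was added, reaction 1 h RT; ADP read by ADP-Glo luminescence, IC50 fitted from % inhibition vs DMSO.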
For orientation: In ADP-Glo the light output rises with the ADP produced.

In the next assay the target is T2, GST tagged PIP4KtypeIIA (Homo sapiens, UniProt P48426).
T2 construct: made in house; host or cells: E. coli
T2 sequence (P48426 1-406): T1 sequence (P48426 1-406)
Briefly: ADP-glo kinase assay PIP4K 2A (PIP4KtypeIIA inhibition assay). Format: biochemical. The conditions noted are these: Table 3; compounds listed under IC50 range headings; 10 uM ATP, 0.5 nM PIP4KIIA. In outline:
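E. coli-expressed GST-PIP4KtypeIIA (0.5 nM final) was preincubated 1 h at 27 °C with compound (up to 4.8 μM, 5% DMSO) in PI5P/DOPE lipid in 50 mM HEPES pH 7.3 with 10 mM MgCl2. The reaction was started with 10 μM ATP (final) and run 1 h. ADP was read by ADP-Glo luminescence via a calibration curve, and IC50 was taken from % residual activity.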

The next assay has as its target T3, GST tagged PIP4KtypeIIB (Homo sapiens, UniProt P78356).
T3 construct: made in house; host or cells: E. coli
T3 sequence (P78356 1-416): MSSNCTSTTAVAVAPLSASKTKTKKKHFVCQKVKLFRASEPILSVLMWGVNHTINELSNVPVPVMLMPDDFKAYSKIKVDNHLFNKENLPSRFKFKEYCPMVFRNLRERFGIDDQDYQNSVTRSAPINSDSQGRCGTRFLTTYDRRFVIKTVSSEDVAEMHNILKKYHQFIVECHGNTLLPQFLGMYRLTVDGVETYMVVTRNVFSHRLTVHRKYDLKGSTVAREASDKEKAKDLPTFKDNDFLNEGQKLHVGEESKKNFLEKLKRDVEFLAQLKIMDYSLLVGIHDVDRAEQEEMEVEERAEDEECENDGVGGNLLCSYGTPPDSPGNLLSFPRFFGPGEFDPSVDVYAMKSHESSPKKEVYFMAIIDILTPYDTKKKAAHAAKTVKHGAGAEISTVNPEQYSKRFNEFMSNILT
The experiment in a line: Trans-FI P kinase assay PIP4K2B (PIP4KtypeIIB inhibition assay). Format: biochemical. The conditions noted are these: Table 4; compounds listed under IC50 range headings; 100 uM GTP, 5 nM PIP4KIIB; read-out: Trans-FI P kinase assays: PIP4K2B IC50. A digest of the protocol: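 Purified GST-PIP4KIIB (5 nM final), 1 h preincubation with compound at 27 C, then 2 h reaction with 100 uM GTP and 80 uM PI5P plus DOPE carrier lipid in pH 7.3 HEPES/MgCl2/Triton buffer with 5% DMSO. GDP read by Transcreener FI fluorescence against a calibration curve; IC50 from % no-inhibitor activity vs log concentration.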

Regarding `Cn1ccc(-c2cncc(-c3ccc(N4CCCC4=O)cc3)c2)cc1=O` [Example 33, 1′-methyl-5-(4-(2-oxopyrrolidin-1-yl)phenyl)-[3,4′-bipyridin]-2′(1′H)-one], the pIC50 (commonly the IC50 on a negative log10 scale, so that one unit is a factor of ten) was more than 5.30 in assay [1], less than 5.30 against GST tagged PIP4KtypeIIA and less than 5.30 at GST tagged PIP4KtypeIIB.
For `O=C1CCCN1c1ccc(-c2cncc(-c3cc(C4CC4)nc4n[nH]cc34)c2)cc1` [Example 267, 1-(4-(5-(6-cyclopropyl-2H-pyrazolo[3,4-b]pyridin-4-yl)pyridin-3-yl)phenyl)pyrrolidin-2-one], the pIC50 in assay [1] is 7.00 to 8.30; on GST tagged PIP4KtypeIIA it was 6.00 to 7.00; at GST tagged PIP4KtypeIIB, 6.00 to 7.00.
In the case of `CN(C)C(=O)c1ccc(-c2cncc(-c3cnc4[nH]ccc4c3)c2)cc1` [Example 4, 4-(5-(1H-pyrrolo[2,3-b]pyridin-5-yl)pyridin-3-yl)-N,N-dimethylbenzamide], the pIC50 in assay [1] was 6.00 to 7.00; at GST tagged PIP4KtypeIIA it was 5.30 to 5.60; on GST tagged PIP4KtypeIIB, 5.30 to 5.60.
`CNC(=O)c1cnc2c(c1)c(-c1cncc(-c3ccc(N4CCCC4=O)cc3)c1)cn2C` [Example 60, N,1-dimethyl-3-(5-(4-(2-oxopyrrolidin-1-yl)phenyl)pyridin-3-yl)-1H-pyrrolo[2,3-b]pyridine-5-carboxamide]: the pIC50 is 7.00 to 8.30 in assay [1], 6.00 to 7.00 against GST tagged PIP4KtypeIIA and 6.00 to 7.00 at GST tagged PIP4KtypeIIB.
Consider `O=C1CCCN1c1ccc(-c2cncc(-c3ccnc4c3OCCO4)c2)cc1` [Example 40, 1-[4-[5-(2,3-Dihydro-[1,4]dioxino[2,3-b]pyridin-8-yl)-3-pyridyl]phenyl]pyrrolidin-2-one], for which the pIC50 is 6.00 to 7.00 in assay [1], 5.30 to 5.60 against GST tagged PIP4KtypeIIA and 5.60 to 6.00 at GST tagged PIP4KtypeIIB.
In the same order, the values of `Cn1cc(-c2cnc(N)nc2)c2cc(-c3cncc(-c4ccc(N5CCCC5=O)cc4)c3)cnc21` [Example 355, 1-(4-(5-(3-(2-aminopyrimidin-5-yl)-1-methyl-1H-pyrrolo[2,3-b]pyridin-5-yl)pyridin-3-yl)phenyl)pyrrolidin-2-one] are 7.00 to 8.30, 7.00 to 8.00 and 6.00 to 7.00.
In the same order, the values of `CN(C)C(=O)c1ccc(-c2cncc(-c3ccnc4[nH]ccc34)c2)cc1` [Example 2, 4-(5-(1H-pyrrolo[2,3-b]pyridin-4-yl)pyridin-3-yl)-N,N-dimethylbenzamide] are 6.00 to 7.00, 6.00 to 7.00 and 6.00 to 7.00.
In the same order, the values of `CN(C)C(=O)c1ccc(-c2cncc(-c3ccncc3)c2)cc1` [Example 1, 4-([3,4′-bipyridin]-5-yl)-N,N-dimethylbenzamide] are more than 5.30, less than 5.30 and less than 5.30.
Regarding `CN(C)C(=O)c1ccc(-c2cc(-c3ccnc(CNC(=O)c4ccc(N)cc4)c3)cnc2N)nc1` [Example 188, 2′-amino-2″-((4-aminobenzamido)methyl)-N,N-dimethyl-[2,3′:5′,4″-terpyridine]-5-carboxamide], the values for the pIC50 (in assay [1]; against GST tagged PIP4KtypeIIA; at GST tagged PIP4KtypeIIB) were 5.60 to 6.00, less than 5.30 and 5.60 to 6.00, respectively.
In the case of `Nc1ncc(-c2cccc3ncsc23)cc1-c1ccc(N2CCCC2=O)cn1` [Example 24, 1-(2′-amino-5′-(benzo[d]thiazol-7-yl)-[2,3′-bipyridin]-5-yl)pyrrolidin-2-one], the pIC50 is 6.00 to 7.00 in assay [1], 5.60 to 6.00 on GST tagged PIP4KtypeIIA and 5.60 to 6.00 on GST tagged PIP4KtypeIIB.
Regarding `O=C(NCc1ccc2c(c1)COB2O)c1cc2c(-c3cncc(-c4ccc(N5CCCC5=O)cc4)c3)ccnc2[nH]1` [Example 276, N-((1-hydroxy-1,3-dihydrobenzo[c][1,2]oxaborol-5-yl)methyl)-4-(5-(4-(2-oxopyrrolidin-1-yl)phenyl)pyridin-3-yl)-1H-pyrrolo[2,3-b]pyridine-2-carboxamide], the values for the pIC50 (in assay [1]; at GST tagged PIP4KtypeIIA; at GST tagged PIP4KtypeIIB) were 7.00 to 8.30, 6.00 to 7.00 and 7.00 to 8.00, respectively.
As for `Nc1ncc(-c2ccncc2)cc1-c1ccc(N2CCCC2=O)cc1` [Example 84, 1-(4-(6-amino-[3,4′-bipyridin]-5-yl)phenyl)pyrrolidin-2-one], the pIC50 (in assay [1]; against GST tagged PIP4KtypeIIA; at GST tagged PIP4KtypeIIB) was 6.00 to 7.00 each time.
`Cc1c(-c2cncc(-c3ccc(N4CCCC4=O)cc3)c2)c2cc(C(=O)N(C)C)cnc2n1C` [Example 249, N,N,1,2-tetramethyl-3-(5-(4-(2-oxopyrrolidin-1-yl)phenyl)pyridin-3-yl)-1H-pyrrolo[2,3-b]pyridine-5-carboxamide]: the pIC50 in assay [1] was 7.00 to 8.30; against GST tagged PIP4KtypeIIA, 6.00 to 7.00; on GST tagged PIP4KtypeIIB, 6.00 to 7.00.
As to `CN1CCn2c(cc3c(-c4cncc(-c5ccc(N6CCCCCC6=O)cc5)c4)ccnc32)C1=O` [Example 345, 7-methyl-4-(5-(4-(2-oxoazepan-1-yl)phenyl)pyridin-3-yl)-8,9-dihydropyrido[3′,2′:4,5]pyrrolo[1,2-a]pyrazin-6(7H)-one], the pIC50 in assay [1] is 6.00 to 7.00; against GST tagged PIP4KtypeIIA it was 6.00 to 7.00; at GST tagged PIP4KtypeIIB, 7.00 to 8.00.
As for `CC(C)Cn1cc(-c2cncc(-c3ccc(N4CCCC4=O)cc3)c2)c2cn[nH]c2c1=O` [Example 68, 6-isobutyl-4-(5-(4-(2-oxopyrrolidin-1-yl)phenyl)pyridin-3-yl)-1,6-dihydro-7H-pyrazolo[3,4-c]pyridin-7-one], the values for the pIC50 (in assay [1]; against GST tagged PIP4KtypeIIA; on GST tagged PIP4KtypeIIB) were 7.00 to 8.30, 7.00 to 8.00 and 7.00 to 8.00, respectively.
As for `Cc1c(-c2ccc(N3CCCC3=O)cc2)cncc1-c1ccnc2[nH]c(C(=O)N(C)C)cc12` [Example 173, N,N-dimethyl-4-(4-methyl-5-(4-(2-oxopyrrolidin-1-yl)phenyl)pyridin-3-yl)-1H-pyrrolo[2,3-b]pyridine-2-carboxamide], the values for the negative logarithm of the IC50 (pIC50) (in assay [1]; at GST tagged PIP4KtypeIIA; on GST tagged PIP4KtypeIIB) were 7.00 to 8.30, 6.00 to 7.00 and 6.00 to 7.00, respectively.
Regarding `CN(C)C(=O)c1cnc2n[nH]c(-c3cncc(-c4ccc(N5CCCC5=O)cc4)c3)c2c1` [Example 227, N,N-dimethyl-3-(5-(4-(2-oxopyrrolidin-1-yl)phenyl)pyridin-3-yl)-2H-pyrazolo[3,4-b]pyridine-5-carboxamide], the pIC50 in assay [1] is 7.00 to 8.30; at GST tagged PIP4KtypeIIA it was 6.00 to 7.00; on GST tagged PIP4KtypeIIB it was 6.00 to 7.00.
For `CC(=O)N(C)c1cc(-c2cncc(-c3ccc(N4CCCC4=O)cc3)c2)ccn1` [Example 57, N-methyl-N-(5-(4-(2-oxopyrrolidin-1-yl)phenyl)-[3,4′-bipyridin]-2′-yl)acetamide], the figures for the pIC50 (in assay [1]; at GST tagged PIP4KtypeIIA; on GST tagged PIP4KtypeIIB) were more than 5.30, less than 5.30 and less than 5.30, respectively.
On to `Cn1cc(-c2cncc(-c3ccc(N4CCCC4=O)cc3)c2)c2cnn(C)c2c1=O` [Example 55, 1,6-dimethyl-4-(5-(4-(2-oxopyrrolidin-1-yl)phenyl)pyridin-3-yl)-1,6-dihydro-7H-pyrazolo[3,4-c]pyridin-7-one], for which the pIC50 in assay [1] is 7.00 to 8.30; on GST tagged PIP4KtypeIIA, 6.00 to 7.00; on GST tagged PIP4KtypeIIB it was 6.00 to 7.00.
As for `Cn1cc(-c2cnc(N)c(-c3ccc(N4CCCC4=O)cc3)c2)c2cccnc21` [Example 87, 1-(4-(2-amino-5-(1-methyl-1H-pyrrolo[2,3-b]pyridin-3-yl)pyridin-3-yl)phenyl)pyrrolidin-2-one], the pIC50 in assay [1] was 7.00 to 8.30; at GST tagged PIP4KtypeIIA, 6.00 to 7.00; at GST tagged PIP4KtypeIIB, 6.00 to 7.00.
